Reference: US5391540A, “Substituted pyridine compounds” (Rohm and Haas Company, priority 1993, dated 1995)

Assays:
Assay in all cases: Pre-emergent herbicidal activity (Table A)
Format in all cases: in vivo
[1] = test system: Downy Brome; settings: Bromus tectorum, pre-emergence, Dobr, 11.2 kg/ha, 10-14 days, read-out: herbicidal rating (% inhibition)
Method in brief: (§1)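 Seeds or vegetative propagules were set on topsoil compacted to 0.95 to 1.27 cm below the pan rim, then covered with soil thoroughly mixed with a known amount of test compound in acetone or water carrier. Ratings follow a scale of percent inhibition per species.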

[2] = test system: Yellow Nutsedge; settings: Cyperus, pre-emergence, Yens, 11.2 kg/ha, 10-14 days, read-out: herbicidal rating (% inhibition)
Method in brief: as §1

[3] = test system: Barnyardgrass; settings: Echinochloa crus-galli, pre-emergence, Bygr, 11.2 kg/ha, 10-14 days, read-out: herbicidal rating (% inhibition)
Method in brief: as §1

[4] = test system: Cocklebur; settings: Xanthium strumarium, pre-emergence, Cobu, 11.2 kg/ha, 10-14 days, read-out: herbicidal rating (% inhibition)
Method in brief: as §1

[5] = test system: Velvetleaf; settings: Abutilon theophrasti, pre-emergence, Vele, 11.2 kg/ha, 10-14 days, read-out: herbicidal rating (% inhibition)
Method in brief: as §1

[6] = test system: Morningglory; settings: Ipomoea, pre-emergence, Mogl, 11.2 kg/ha, 10-14 days, read-out: herbicidal rating (% inhibition)
Method in brief: as §1

[7] = test system: Seedling Johnsongrass; settings: Sorghum halepense, pre-emergence, Sejg, 11.2 kg/ha, 10-14 days, read-out: herbicidal rating (% inhibition)
Description: (§2) Tables A and B summarize results of tests conducted to determine the pre-emergent herbicidal activity of the compounds of this invention. The herbicidal ratings used in Tables A and B were assigned according to a scale based on the percent inhibition of each plant species. The herbicide rating symbols in Tables A and B are defined as follows: […]
(§3) One set of pre-emergent tests was conducted as follows:
(§4) Topsoil was placed in a pan and compacted to a depth of 0.95 to 1.27 cm. from the top of the pan. A predetermined number of seeds of each of several monocotyledonous and dicotyledonous annual plant species and/or vegetative propagules of various perennial plant species were placed on top of the soil. The soil required to level fill a pan after seeding or adding vegetative propagules was weighed into another pan. A known amount of the test compound dissolved or suspended in an organic solvent or water and applied in acetone or water as a carrier was thoroughly mixed with this cover soil, and the herbicide/soil mixture was used as a cover layer for the previously prepared pan. In Table A below the amounts of active ingredient were all equivalent to an application rate of 11.2 kilograms/hectare (kg/ha). After treatment, the pans were moved to a greenhouse bench where they were watered as needed to give adequate moisture for germination and growth.
(§5) Approximately 10-14 days (usually 11 days) after planting and treating, the plants were observed and the results recorded.
(§6) The plant species usually regarded as weeds which were utilized in one set of pre-emergent activity tests, the data for which are shown in Table A, are identified by letter headings printed diagonally above the columns according to the following legend: […]

[8] = test system: Wild Buckwheat; settings: Fallopia convolvulus, pre-emergence, Wibw, 11.2 kg/ha, 10-14 days, read-out: herbicidal rating (% inhibition)
Description: as §2, §3, §4, §5, §6

[9] = test system: Annual Bluegrass; settings: pre-emergence, Anbg, 11.2 kg/ha, 10-14 days, read-out: herbicidal rating (% inhibition)
Description: as §2, §3, §4, §5, §6

[10] = test system: Indian Mustard; settings: Brassica juncea, pre-emergence, Inmu, 11.2 kg/ha, 10-14 days, read-out: herbicidal rating (% inhibition)
Description: as §2, §3, §4, §5, §6

COC(=O)c1c(OC)nc(C(F)(F)F)c(C(=O)n2cc(NC(C)=O)cn2)c1CC(C)C [Compound 107, 3-pyridinecarboxylic acid, 5-[[4-(acetylamino)-1H-pyrazol-1-yl]carbonyl]-2-methoxy-4-(2-methylpropyl)-6-(trifluoromethyl)-, methyl ester]
inhibition at 11200 g/ha [1]: 0 to 24%
inhibition at 11200 g/ha [2]: 0 to 24%
inhibition at 11200 g/ha [3]: 75 to 100%
inhibition at 11200 g/ha [4]: 0 to 24%
inhibition at 11200 g/ha [5]: 75 to 100%
inhibition at 11200 g/ha [6]: 75 to 100%
inhibition at 11200 g/ha [7]: 75 to 100%
inhibition at 11200 g/ha [8]: 50 to 74%
inhibition at 11200 g/ha [9]: 75 to 100%
inhibition at 11200 g/ha [10]: 75 to 100%

COc1nc(C(F)(F)F)c(C2OCCCO2)c(CC(C)C)c1C(=O)SC [Compound 136, 3-pyridinecarbothioic acid, 5-(1,3-dioxan-2-yl)-2-methoxy-4-(2-methylpropyl)-6-(trifluoromethyl)-, S-methyl ester]
inhibition at 11200 g/ha [1]: 75 to 100%
inhibition at 11200 g/ha [2]: 25 to 49%
inhibition at 11200 g/ha [3]: 75 to 100%
inhibition at 11200 g/ha [4]: 50 to 74%
inhibition at 11200 g/ha [5]: 50 to 74%
inhibition at 11200 g/ha [6]: 50 to 74%
inhibition at 11200 g/ha [7]: 75 to 100%
inhibition at 11200 g/ha [8]: 75 to 100%
inhibition at 11200 g/ha [9]: 75 to 100%
inhibition at 11200 g/ha [10]: 75 to 100%

COC(=O)c1c(OC)nc(C(F)(F)F)c(C=O)c1C1CCC1 [Compound 139, 3-pyridinecarboxylic acid, 4-cyclobuty1-5-formy1-2-methoxy-6-(trifluoromethyl)-, methyl ester]
inhibition at 11200 g/ha [1]: 75 to 100%
inhibition at 11200 g/ha [2]: 0 to 24%
inhibition at 11200 g/ha [3]: 75 to 100%
inhibition at 11200 g/ha [4]: 0 to 24%
inhibition at 11200 g/ha [5]: 75 to 100%
inhibition at 11200 g/ha [6]: 50 to 74%
inhibition at 11200 g/ha [7]: 75 to 100%
inhibition at 11200 g/ha [8]: 75 to 100%
inhibition at 11200 g/ha [9]: 75 to 100%
inhibition at 11200 g/ha [10]: 75 to 100%

COc1nc(C(F)(F)F)c(C(=O)Cl)c(CC(C)C)c1C(=O)SC [Compound 133, 3-pyridinecarbothioic acid, 5-(chlorocarbonyl)-2-methoxy-4-(2-methylpropyl)-6-(trifluoromethyl)-, S-methyl ester]
inhibition at 11200 g/ha [1]: 0 to 24%
inhibition at 11200 g/ha [2]: 0 to 24%
inhibition at 11200 g/ha [3]: 0 to 24%
inhibition at 11200 g/ha [4]: 0 to 24%
inhibition at 11200 g/ha [5]: 0 to 24%
inhibition at 11200 g/ha [6]: 0 to 24%
inhibition at 11200 g/ha [7]: 0 to 24%
inhibition at 11200 g/ha [8]: 0 to 24%
inhibition at 11200 g/ha [9]: 0 to 24%
inhibition at 11200 g/ha [10]: 25 to 49%

COC(=O)c1c(OC)nc(C(F)(F)F)c(C2SCCCS2)c1CC(C)C [Compound 94, 3-pyridinecarboxylic acid, 5-(1,3-dithian-2-yl)-2-methoxy-4-(2-methylpropyl)-6-(trifluoromethyl)-, methyl ester]
inhibition at 11200 g/ha [1]: 50 to 74%
inhibition at 11200 g/ha [2]: 0 to 24%
inhibition at 11200 g/ha [3]: 75 to 100%
inhibition at 11200 g/ha [4]: 25 to 49%
inhibition at 11200 g/ha [5]: 75 to 100%
inhibition at 11200 g/ha [6]: 75 to 100%
inhibition at 11200 g/ha [7]: 75 to 100%
inhibition at 11200 g/ha [8]: 75 to 100%
inhibition at 11200 g/ha [9]: 75 to 100%
inhibition at 11200 g/ha [10]: 75 to 100%

COC(=O)c1c(OC)nc(C(F)(F)F)c(-c2ncco2)c1CC(C)C [Compound 130, 3-pyridinecarboxylic acid, 2-methoxy-4-(2-methylpropyl)-5-(2-oxazolyl)-6-(trifluoromethyl)-, methyl ester]
inhibition at 11200 g/ha [1]: 75 to 100%
inhibition at 11200 g/ha [2]: 75 to 100%
inhibition at 11200 g/ha [3]: 75 to 100%
inhibition at 11200 g/ha [4]: 25 to 49%
inhibition at 11200 g/ha [5]: 75 to 100%
inhibition at 11200 g/ha [6]: 75 to 100%
inhibition at 11200 g/ha [7]: 75 to 100%
inhibition at 11200 g/ha [8]: 75 to 100%
inhibition at 11200 g/ha [9]: 75 to 100%
inhibition at 11200 g/ha [10]: 75 to 100%
